Data published in patent US5536723A, “S-nitroso derivatives of hydrazinoacetic acids, 1-[(acylthio and (mercapto)-1-oxoalkyl]-1,2,34-Tetrahydroquinoline-2-carboxylic acids and alanyl prolines and isoquinolines” (Brigham & Women's Hospital, priority 1994, dated 1996).
Peptide text beside a SMILES is read from it.

Tests used:
[1] = system: soluble guanylate cyclase; settings: Ignarro 1980; cited from earlier work
[2] = system: guanylate cyclase in arterial smooth muscle; settings: Horowitz 1983; cited from earlier work
[3] = system: bovine femoral artery, response to bradykinin; test: response of the bovine femoral artery to bradykinin
Experimental: (§1) Blood Vessel Preparation. Bovine coronary or femoral arteries were obtained from an abattoir immediately after sacrifice of two- to four-week-old calves. Immediately after removal, the vessel was placed in ice-cold physiologic salt solution (PSS) containing 118.3 mM NaCl, 4.7 mM KCl, 2.5 mM CaCl2, 1.2 mM MgSO4, 1.2 mM KH2 PO4, 25.0 mM NaHCO3, 11.1 mM glucose, and 0.026 mM calcium disodium (ethylenedinitrilo)-tetraacetate. The vessels were then cleaned of adventitial tissue and cut into rings of approximately 5 mm lengths. When called for by the protocol, endothelium was removed from a ring by gently rubbing the luminal surface with a watchmaker's forceps. Vascular rings with intact endothelium were then suspended in organ chambers containing 25 ml of PSS at 37° aerated with 95% O2 -5% CO2. The rings were connected to force transducers (Grass FT03C, Quincy, Mass.) and changes in isometric force recorded continuously (Grass Polygraph Model 79B) over a period of 90 minutes. The optimal length-tension relationship was determined for each ring by observing the response to 10^-6 M norepinephrine after increments in tension of 0.5 gm. The functional integrity of the endothelium was assessed by contracting the vessel with 10^-6 M norepinephrine and then observing the response to 3×10^-7 M acetylcholine chloride.
In the bovine femoral artery contracted with a concentration of norepinephrine inducing a half-maximal response, bradykinin induced a biphasic response.

platelet aggregation = settings: Loscalzo 1985; cited from earlier work
[4] = arterial pressure in the anesthetized rabbit; assay type: in vivo; settings: 1 mM solution infused in an ear vein, 0.02 to 2.2 ml/min
Experimental: A 1 mM solution of S-nitrosocaptopril was infused in an ear vein of the rabbit at rates from 0.02 to 2.2 ml/min and the phasic and mean arterial pressure recorded in the femoral artery.

platelets = test: platelet aggregation in PRP induced by ADP; assay type: cell-based, human; settings: 11 μM ADP
Experimental: FIG. 7 depicts a graph showing the effect of S-nitrosocaptopril on platelet aggregation. Platelets in PRP were incubated with S-nitrosocaptopril over a range of concentrations for three minutes, after which ADP was added to a final concentration of 11 uM. The maximal rate of aggregation was measured and plotted as a percentage of that observed in the absence of S-nitrosocaptopril. Each point represents the mean ±SEM of five experiments each performed in duplicate.
Platelets. Volunteers who had not ingested acetylsalicylic acid for at least ten days provided venous blood within one hour of use. […] Platelet counts were determined using a Coulter counter (Model ZM; Coulter Electronics, Hialeah, Fla.) and adjusted with platelet-poor plasma (PPP) to 1.5×10^8 platelets/ml prior to use.
Platelet Aggregation. Platelet aggregation was monitored using a standard nephelometric technique (Born and Cross, J. Physiol (London) 168:178-195 (1963)) in which PRP was incubated at 37° with a final concentration of 11 μM ADP and stirred at 900 rpm in a Payton dual channel aggregometer (Payton Associates, Inc., Buffalo, N.Y.). Aggregation was quantitated by measuring either the maximal rate of change of light transmittance or the extent of change of light transmittance. […]

bovine femoral artery = test: relaxation of isolated bovine femoral artery rings contracted with norepinephrine; settings: norepinephrine-contracted; FIG. 2
Experimental: FIG. 2 depicts a graph showing the effect of S-nitrosocaptopril on the contraction of bovine femoral arteries to norepinephrine.
as §1
Vascular ring segments with intact endothelium were […] contracted with a concentration of norepinephrine inducing a half-maximal response. After a stable contraction had been achieved, the tissue was exposed to increasing concentrations of S-nitrosocaptopril in cumulative half-log increments. […] The apparent IC50 is approximately 1 μM.

[5] = system: bovine femoral artery, contraction to angiotensin I; test: contraction of the bovine femoral artery to angiotensin I
Experimental: The data are expressed as a percentage of the maximal response to norepinephrine (10^-6 M) and are shown as mean ±SEM in each group (n=7).
as §1

N[C@@H](CCC(=O)N[C@@H](CSN=O)C(=O)NCC(=O)O)C(=O)O [S-nitrosothiol of glutathione]
activation of soluble guanylate cyclase (in words) [1]: capable of activating soluble guanylate cyclase
activation of guanylate cyclase in arterial smooth muscle (in words) [2]: potent activators of guanylate cyclase

CC(C)(SN=O)C(N)C(=O)O (stereo not shown) [S-nitrosothiol of penicillamine]
activation of soluble guanylate cyclase (in words) [1]: capable of activating soluble guanylate cyclase
activation of guanylate cyclase in arterial smooth muscle (in words) [2]: potent activators of guanylate cyclase

NC(N)=NCCC[C@H](NC(=O)[C@H](Cc1ccccc1)NC(=O)[C@@H]1CCCN1C(=O)[C@H](CO)NC(=O)[C@H](Cc1ccccc1)NC(=O)CNC(=O)[C@@H]1CCCN1C(=O)[C@@H]1CCCN1C(=O)[C@@H](N)CCCN=C(N)N)C(=O)O [bradykinin] (H-RPPGFSPFR-OH)
response to bradykinin at higher concentrations (in words) ([3]; norepinephrine-contracted, higher concentrations): increase in tension which was not affected by removal of the endothelium
response to bradykinin at lower concentrations (in words) ([3]; norepinephrine-contracted, lower concentrations): relaxations that were abolished by removal of the endothelium

CC(=O)N[C@@H](CSN=O)C(=O)O [S-nitroso-N-acetyl cysteine]
inhibition of platelet aggregation (in words) (platelet aggregation): extremely potent inhibitor of platelet aggregation

O=C1O[C@H]([C@@H](O)CO)C(O)=C1O [Ascorbate]
activation of guanylate cyclase in arterial smooth muscle (in words) [2]: totally ineffective

O=N[O-].[Na+] [NaNO2]
effect on blood pressure (in words) [4]: no effect on blood pressure

NC(CSN=O)C(=O)O (stereo not shown) [S-nitrosothiol of cysteine]
activation of soluble guanylate cyclase (in words) [1]: capable of activating soluble guanylate cyclase
activation of guanylate cyclase in arterial smooth muscle (in words) [2]: potent activators of guanylate cyclase

C[C@H](CS)C(=O)N1CCCC1C(=O)O (stereo in doubt) [captopril, D-3-mercapto-2-methylpropanoyl-L-proline]
inhibitory effect on platelet aggregation (in words) (platelets): no inhibitory effect
relaxation response (in words) (bovine femoral artery): no relaxation response
inhibition of contractions to angiotensin I, S-nitrosocaptopril versus captopril (in words) [5]: equally inhibited contractions to angiotensin I
effect on blood pressure (in words) [4]: no effect on blood pressure
effect on the response to bradykinin (in words) ([3]; 10^-6 M): Neither response to bradykinin was affected
